Holding throughout (assay type): functional
Test [1] has as its system Mus musculus. As to the kind of experiment: Antihyperglycemic activity in NIDDM db/db mouse model assessed as food intake per mouse at 0.5 mg/kg, qd.
Test [2] relates to Mus musculus. Briefly: Antihyperglycemic activity in NIDDM db/db mouse model assessed as body weight per mouse at 0.5 mg/kg, qd after 24 hrs.
Test [3] has as its system Mus musculus. As to the kind of experiment: Antihyperglycemic activity in NIDDM db/db mouse model assessed as change in plasma glucose level at 0.5 mg/kg, qd after 3 hrs relative to pre-dosed control.
The test system of test [4] is Mus musculus. As to the kind of experiment: Antihyperglycemic activity in NIDDM db/db mouse model assessed as change in plasma glucose level at 0.5 mg/kg, qd after 27 hrs relative to pre-dosed control.

Data on one molecule can be found in ChEMBL document CHEMBL1157271, “Maprouneacin, a new daphnane diterpenoid with potent antihyperglycemic activity from Maprounea africana” (1999).

Turning to `CCCCC/C=C/C=C/[C@]12O[C@@H]3[C@@H]4[C@@H]5O[C@]5(CO)[C@@H](O)[C@]5(O)C(=O)C(C)=C[C@H]5[C@@]4(O1)[C@H](COC(=O)CC(C)C)[C@H](OC(=O)CC(C)C)[C@]3([C@]1(C)CO1)O2` [MAPROUNEACIN], the Activity is 0.1 g in test [1], 37.8 g in test [2], -254 mg/dL in test [3] and -246 mg/dL in test [4].
